Patent publication US10939680B2, “Herbicidal composition” (priority 2014, dated 2021)

What was measured:
[1] = tested on: rye-grass (Lolium multiflorum); test: Efficiency test of the herbicidal composition on rye-grass in oilseed rape fields; format: in vivo; settings: for percentage of weeds eliminated, Trial ALS11H56-02 / percentage of weeds eliminated, Trial ALS11H56-04 / percentage of weeds eliminated, Trial ALS12H56-03: crop OSR; for percentage of weeds eliminated, Trial ALS11H56-02 / percentage of weeds eliminated, Trial ALS11H56-04: 53 DAA; for percentage of weeds eliminated, Trial ALS12H56-03: 58 DAA; for Maximum percentage of weeds eliminated: maximum of three OSR trials; for Maximum percentage of weeds eliminated / Minimum percentage of weeds eliminated: 53-58 DAA; for Minimum percentage of weeds eliminated: minimum of three OSR trials
Description: This plant, also called […] or Italian rye-grass (Lolium multiflorum) is traditionally considered to be a pest.
The composition has been tested on different parcels of oilseed rape (OSR for Oilseed rape, Brassica napus).
Findings relating to damages caused by the different compounds that were trialed are set out in percentages of weeds eliminated from 0 to 100% with respect to a trialed lot in which no herbicidal treatment was applied. The number, 0, corresponds to no observed damage to weeds whereas the number, 100, corresponds to an elimination of the entirety of the weeds.
Further, a volume of 0.8 L of the aforementioned composition has been applied per hectare to the treated lot.
Quizalofop-p-ethyl and flauzifop-p-butyl belong to the aryloxyphenoxypropionate family. A volume of 1.2 L of quizalofop-p-ethyl per hectare and a volume of 1.5 L of flauzifop-p-butyl per hectare have respectively been applied.
The compositions—ALSNC10HCLQ01 0.8 and Q+C 1:1 (0.4-0.5 liters per hectare) and quizalofop-p-ethyl (1.2 liters per hectare) which were tested have been diluted, prior to their application, in 1 L of adjuvant oil (Actirob).
Different trials have been conducted in different fields where oilseed rape (OSR) is grown. The efficiency of different products and of the herbicidal composition referred to in the invention have been evaluated at different time intervals following the application of the said products to the crop in question (DAA means “days after application”). For example, the efficiency of products has been measured 53 and 58 days after application to the field of oilseed rape. These intervals following application of the composition are necessary and adequate to enable the ultimate efficiency of the trialed products to be judged.

[2] = tested on: blackgrass (Alopecurus myosuroides); test: Efficiency test of the herbicidal composition on blackgrass in field crops; format: in vivo; settings: for percentage of weeds eliminated, Trial No. ALS12H48 -05: 44 DAA; for percentage of weeds eliminated, Trial No. ALS11H56-01: 50 DAA; for Maximum percentage of weeds eliminated: maximum of the trials; for Maximum percentage of weeds eliminated / Minimum percentage of weeds eliminated: 44-50 DAA; for Minimum percentage of weeds eliminated: minimum of the trials
Procedure: Trials were also carried out to show the efficiency of the herbicidal composition referred to in the invention on a second weed called blackgrass. This plant is an annual plant and has traditionally been seen as a weed in cultivated fields.
The composition was tested on crops including crops of beetroot (Sugar beet, Beta vulgaris), oilseed rape (OSR, Brassica napus).
The same compounds that were used in Example 1 were evaluated for efficiency.
In the same manner as for Example 1, different trials were carried out in different fields, in each which a plant of interest was cultivated.
In this example, tests were carried out on two plots of oilseed rape, on the one hand, and in a lot of beetroot on the other hand.
The efficiency of different products and the herbicidal composition referred to in the invention have been evaluated at different intervals following the application (DAA) of the aforementioned products onto the crop in question.
For example, the efficiency of products has been measured at 44, 46 and 50 days following application of the products.

Compound	percentage of weeds eliminated, Trial ALS11H56-02 [1] [%]	percentage of weeds eliminated, Trial ALS11H56-04 [1] [%]	percentage of weeds eliminated, Trial ALS12H56-03 [1] [%]	Maximum percentage of weeds eliminated [1] [%]	Minimum percentage of weeds eliminated [1] [%]	percentage of weeds eliminated, Trial No. ALS12H48 -05 ([2]; crop OSR) [%]	percentage of weeds eliminated, Trial No. ALS11H56-01 ([2]; crop OSR) [%]	Maximum percentage of weeds eliminated [2] [%]	Minimum percentage of weeds eliminated [2] [%]	percentage of weeds eliminated, Trial No. ALS11H42-02 ([2]; crop OSR, 46 DAA) [%]
CCCCOC(=O)[C@@H](C)Oc1ccc(Oc2ccc(C(F)(F)F)cn2)cc1 [flauzifop-p-butyl]	3	66	46	66	3	52	76	76	52	
CCOC(=O)[C@@H](C)Oc1ccc(Oc2cnc3cc(Cl)ccc3n2)cc1 [quizalofop-p-ethyl]	26	76	68	76	26	50	63	63	30	30
